The results in this text go back to ChEMBL document CHEMBL4229497, “Design and synthesis of benzofuro[3,2-b]pyridin-2(1H)-one derivatives as anti-leukemia agents by inhibiting Btk and PI3Kδ” (Bioorg Med Chem, 2018).

pIC50: −log10 of the molar value. Activity calls are given as the source filed them. No cut-off for these calls is given here.

The subject of assay [1] is Raji. As to the kind of experiment: Antiproliferative activity against human Raji cells after 48 hrs by MTT assay. Type of assay: functional, cell-based.
The test system of assay [2] is K562. The assay is described as follows: Inhibition of PI3K/Akt/mTOR pathway in human K562 cells assessed as reduction in Akt phosphorylation at Ser-473 residue at 1 uM after 24 hrs by Western blot analysis. In kind it is cell-based. A general note: Immunoblotting shows a protein as a band on a membrane.
The target in assay [3] is PI3-kinase p110-delta/p85-alpha (Homo sapiens) (UniProt P27986+O00329). The assay is described as follows: Inhibition of recombinant human full length N-terminal His-tagged PI3K p110delta/p85alpha at 200 nM using lipid substrate after 60 mins by ADP-Glo assay relative to control. Type of assay: protein-complex assay.
The subject of assay [4] is K562. As to the kind of experiment: Antiproliferative activity against human K562 cells after 48 hrs by MTT assay. Type of assay: functional, cell-based. The conditions noted are these: K562, 48 h. A general note: Formazan colour is commonly taken as a measure of viable cells.
The target of assay [5] is Tyrosine-protein kinase BTK (Homo sapiens, UniProt Q06187). As to the kind of experiment: Inhibition of recombinant full length human N-terminal His tagged BTK expressed in baculovirus infected Sf9 cells using poly (4:1 Glu, Tyr) as substrate after 60 mins by ADP-Glo assay. In general terms: In ADP-Glo the light output rises with the ADP produced.
Chain of Tyrosine-protein kinase BTK (Q06187 whole entry): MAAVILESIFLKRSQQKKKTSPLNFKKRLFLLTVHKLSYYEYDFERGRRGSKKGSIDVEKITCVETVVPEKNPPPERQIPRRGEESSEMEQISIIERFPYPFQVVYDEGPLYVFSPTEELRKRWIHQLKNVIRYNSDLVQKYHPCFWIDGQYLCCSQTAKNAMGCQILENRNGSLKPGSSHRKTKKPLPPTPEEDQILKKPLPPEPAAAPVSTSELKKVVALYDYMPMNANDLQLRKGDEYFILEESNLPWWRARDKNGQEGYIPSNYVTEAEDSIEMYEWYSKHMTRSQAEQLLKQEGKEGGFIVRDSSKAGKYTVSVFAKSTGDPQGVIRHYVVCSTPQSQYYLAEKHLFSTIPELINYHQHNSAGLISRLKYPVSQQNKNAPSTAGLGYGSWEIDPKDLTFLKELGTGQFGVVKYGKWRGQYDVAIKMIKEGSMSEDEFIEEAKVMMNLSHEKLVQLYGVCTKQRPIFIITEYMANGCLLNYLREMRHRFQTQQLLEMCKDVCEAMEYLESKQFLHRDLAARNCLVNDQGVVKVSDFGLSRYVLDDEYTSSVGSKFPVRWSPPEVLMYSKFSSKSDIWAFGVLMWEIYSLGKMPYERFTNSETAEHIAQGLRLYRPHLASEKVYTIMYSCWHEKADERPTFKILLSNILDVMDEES
Assay [6] concerns HL-60. As to the kind of experiment: Antiproliferative activity against human HL60 cells after 48 hrs by MTT assay. In kind it is functional, cell-based. Particulars: HL-60, 48 h.
The test system of assay [7] is Raji. The assay is described as follows: Antiproliferative activity against human Raji cells at 40 uM after 48 hrs by MTT assay relative to control. In kind it is functional.
For assay [8], the system named is HL-60. The assay is described as follows: Antiproliferative activity against human HL60 cells at 40 uM after 48 hrs by MTT assay relative to control. Type of assay: functional.
Assay [9] concerns K562. As to the kind of experiment: Antiproliferative activity against human K562 cells at 40 uM after 48 hrs by MTT assay relative to control. Type of assay: functional.
Assay [10] addresses Phosphatidylinositol 4,5-bisphosphate 3-kinase catalytic subunit beta isoform (Homo sapiens, UniProt P42338). The assay is described as follows: Inhibition of PI3Kbeta (unknown origin).
The target in assay [11] is Phosphatidylinositol 4,5-bisphosphate 3-kinase catalytic subunit alpha isoform (Homo sapiens, UniProt P42336). As to the kind of experiment: Inhibition of PI3Kalpha (unknown origin).
Chain of Phosphatidylinositol 4,5-bisphosphate 3-kinase catalytic subunit alpha isoform (P42336 whole entry, canonical isoform): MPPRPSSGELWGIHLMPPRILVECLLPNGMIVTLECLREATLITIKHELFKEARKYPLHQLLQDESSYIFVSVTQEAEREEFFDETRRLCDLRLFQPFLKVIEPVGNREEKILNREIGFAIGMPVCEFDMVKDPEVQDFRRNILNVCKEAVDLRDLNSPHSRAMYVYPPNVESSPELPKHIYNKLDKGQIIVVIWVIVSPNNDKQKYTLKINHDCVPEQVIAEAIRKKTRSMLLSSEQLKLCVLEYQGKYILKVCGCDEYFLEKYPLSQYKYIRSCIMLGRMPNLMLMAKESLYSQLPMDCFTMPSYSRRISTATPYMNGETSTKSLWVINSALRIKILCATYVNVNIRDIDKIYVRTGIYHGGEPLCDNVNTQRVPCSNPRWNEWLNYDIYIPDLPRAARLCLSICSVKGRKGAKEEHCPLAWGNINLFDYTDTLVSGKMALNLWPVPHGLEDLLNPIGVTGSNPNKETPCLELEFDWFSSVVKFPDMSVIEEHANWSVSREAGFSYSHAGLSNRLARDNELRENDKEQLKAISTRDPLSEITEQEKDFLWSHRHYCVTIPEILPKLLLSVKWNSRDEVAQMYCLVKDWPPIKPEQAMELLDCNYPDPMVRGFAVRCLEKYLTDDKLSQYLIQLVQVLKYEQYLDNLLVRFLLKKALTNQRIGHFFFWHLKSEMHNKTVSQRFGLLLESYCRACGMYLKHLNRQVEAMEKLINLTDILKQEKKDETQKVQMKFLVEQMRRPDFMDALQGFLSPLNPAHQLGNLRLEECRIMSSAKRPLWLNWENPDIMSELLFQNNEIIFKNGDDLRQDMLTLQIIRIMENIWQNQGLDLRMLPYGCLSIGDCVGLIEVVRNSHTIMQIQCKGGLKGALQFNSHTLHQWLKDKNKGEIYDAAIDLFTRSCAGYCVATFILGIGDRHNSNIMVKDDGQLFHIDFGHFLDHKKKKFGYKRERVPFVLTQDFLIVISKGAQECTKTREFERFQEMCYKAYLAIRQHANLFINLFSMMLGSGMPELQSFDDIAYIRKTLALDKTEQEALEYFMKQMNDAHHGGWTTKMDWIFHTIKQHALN
The target of assay [12] is T1, Phosphatidylinositol 4,5-bisphosphate 3-kinase catalytic subunit gamma isoform (Homo sapiens, UniProt P48736). As to the kind of experiment: Inhibition of PI3Kgamma (unknown origin).
T1 sequence (P48736 whole entry, canonical isoform): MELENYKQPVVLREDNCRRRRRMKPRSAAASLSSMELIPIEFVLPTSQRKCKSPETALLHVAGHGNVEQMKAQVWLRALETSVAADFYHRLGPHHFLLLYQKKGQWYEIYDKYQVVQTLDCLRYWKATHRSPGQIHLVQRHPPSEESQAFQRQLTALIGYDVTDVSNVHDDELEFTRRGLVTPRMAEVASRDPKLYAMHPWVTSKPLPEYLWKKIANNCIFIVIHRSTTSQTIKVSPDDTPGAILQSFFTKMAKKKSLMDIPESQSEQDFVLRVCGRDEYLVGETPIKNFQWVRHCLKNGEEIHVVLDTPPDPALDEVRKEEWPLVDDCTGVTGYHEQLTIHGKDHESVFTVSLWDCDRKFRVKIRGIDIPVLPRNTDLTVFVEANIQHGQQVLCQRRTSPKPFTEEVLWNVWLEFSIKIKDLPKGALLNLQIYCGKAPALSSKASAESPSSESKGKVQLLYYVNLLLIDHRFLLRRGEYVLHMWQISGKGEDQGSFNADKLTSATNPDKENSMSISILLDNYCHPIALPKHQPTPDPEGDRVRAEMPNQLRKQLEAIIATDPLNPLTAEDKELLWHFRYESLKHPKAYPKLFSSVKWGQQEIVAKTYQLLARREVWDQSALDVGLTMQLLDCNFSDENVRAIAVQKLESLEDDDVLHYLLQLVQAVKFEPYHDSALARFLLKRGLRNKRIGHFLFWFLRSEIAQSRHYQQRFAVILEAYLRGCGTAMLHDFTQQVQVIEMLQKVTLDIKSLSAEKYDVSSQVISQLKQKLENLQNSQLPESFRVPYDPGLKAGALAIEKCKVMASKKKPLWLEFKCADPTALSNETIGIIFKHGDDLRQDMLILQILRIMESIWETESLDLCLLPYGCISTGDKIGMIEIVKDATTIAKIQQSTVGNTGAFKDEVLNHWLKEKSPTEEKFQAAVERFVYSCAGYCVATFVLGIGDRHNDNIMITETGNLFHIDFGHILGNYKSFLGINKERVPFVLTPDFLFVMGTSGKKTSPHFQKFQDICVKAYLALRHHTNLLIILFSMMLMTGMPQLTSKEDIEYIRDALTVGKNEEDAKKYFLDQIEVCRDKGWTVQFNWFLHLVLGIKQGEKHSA
A short description of assay [13]: Inhibition of PI3K (unknown origin). Set-up: species or system Homo sapiens.
Assay [14] concerns the target PI3-kinase p110-delta/p85-alpha (Homo sapiens, UniProt O00329). The assay is described as follows: Inhibition of recombinant human full length N-terminal His-tagged PI3K p110delta/p85alpha using lipid substrate after 60 mins by ADP-Glo assay. Type of assay: protein-complex assay.
The target in assay [15] is Serine/threonine-protein kinase mTOR (Homo sapiens, UniProt P42345). The assay is described as follows: Inhibition of recombinant human N-terminal FLAG-tagged mTOR (1362-end residues).
Assay [16] deals with PI3-kinase p110-alpha/p85-alpha (Homo sapiens, UniProt P42336). The assay is described as follows: Inhibition of recombinant human full length His-tagged PI3K p110alpha/p85alpha expressed in baculovirus expression system using lipid substrate after 60 mins by ADP-Glo assay.
Chain of PI3-kinase p110-alpha/p85-alpha (P27986 whole entry, canonical isoform): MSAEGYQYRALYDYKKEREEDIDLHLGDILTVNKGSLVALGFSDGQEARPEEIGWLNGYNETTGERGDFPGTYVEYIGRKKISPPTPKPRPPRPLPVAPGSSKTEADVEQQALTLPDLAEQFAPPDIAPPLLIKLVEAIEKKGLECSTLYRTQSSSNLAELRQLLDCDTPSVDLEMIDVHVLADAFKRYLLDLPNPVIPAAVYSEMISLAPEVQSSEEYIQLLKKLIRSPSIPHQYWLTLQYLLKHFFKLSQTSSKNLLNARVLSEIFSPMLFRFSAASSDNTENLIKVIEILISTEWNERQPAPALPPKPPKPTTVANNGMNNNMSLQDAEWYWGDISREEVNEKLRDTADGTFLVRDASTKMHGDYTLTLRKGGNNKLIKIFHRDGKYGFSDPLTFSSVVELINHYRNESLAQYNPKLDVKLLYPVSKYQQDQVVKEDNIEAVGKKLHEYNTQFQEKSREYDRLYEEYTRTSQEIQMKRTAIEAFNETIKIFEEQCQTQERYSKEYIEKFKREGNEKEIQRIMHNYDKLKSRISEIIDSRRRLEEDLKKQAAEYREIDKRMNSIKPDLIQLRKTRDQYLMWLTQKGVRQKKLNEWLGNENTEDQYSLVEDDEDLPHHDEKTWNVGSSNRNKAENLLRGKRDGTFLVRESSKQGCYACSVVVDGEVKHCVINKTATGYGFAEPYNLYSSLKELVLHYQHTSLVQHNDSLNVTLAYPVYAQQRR
Chain of PI3-kinase p110-alpha/p85-alpha (P42336 whole entry, canonical isoform): as the sequence (P42336 whole entry, canonical isoform) above
Assay [17] concerns the target T1, Phosphatidylinositol 4,5-bisphosphate 3-kinase catalytic subunit gamma isoform. As to the kind of experiment: Inhibition of recombinant human full length His-tagged PI3K p110gamma expressed in baculovirus expression system using lipid substrate after 60 mins by ADP-Glo assay.
The next assay addresses PI3K p110 beta/p85 alpha (Homo sapiens, UniProt P42338). The assay is described as follows: Inhibition of recombinant full length human N-terminal His6-tagged PI3K p110beta/p85alpha expressed in baculovirus infected Sf21 cells using lipid substrate after 60 mins by ADP-Glo assay.

The pIC50 is the IC50 on a negative log10 scale, so that one unit is a factor of ten. Usually inhibition stands for the change of the read-out against control, counted positive when it falls.

Chain of PI3-kinase p110-delta/p85-alpha (P27986 whole entry): as the sequence (P27986 whole entry, canonical isoform) above
Chain of PI3-kinase p110-delta/p85-alpha (O00329 whole entry): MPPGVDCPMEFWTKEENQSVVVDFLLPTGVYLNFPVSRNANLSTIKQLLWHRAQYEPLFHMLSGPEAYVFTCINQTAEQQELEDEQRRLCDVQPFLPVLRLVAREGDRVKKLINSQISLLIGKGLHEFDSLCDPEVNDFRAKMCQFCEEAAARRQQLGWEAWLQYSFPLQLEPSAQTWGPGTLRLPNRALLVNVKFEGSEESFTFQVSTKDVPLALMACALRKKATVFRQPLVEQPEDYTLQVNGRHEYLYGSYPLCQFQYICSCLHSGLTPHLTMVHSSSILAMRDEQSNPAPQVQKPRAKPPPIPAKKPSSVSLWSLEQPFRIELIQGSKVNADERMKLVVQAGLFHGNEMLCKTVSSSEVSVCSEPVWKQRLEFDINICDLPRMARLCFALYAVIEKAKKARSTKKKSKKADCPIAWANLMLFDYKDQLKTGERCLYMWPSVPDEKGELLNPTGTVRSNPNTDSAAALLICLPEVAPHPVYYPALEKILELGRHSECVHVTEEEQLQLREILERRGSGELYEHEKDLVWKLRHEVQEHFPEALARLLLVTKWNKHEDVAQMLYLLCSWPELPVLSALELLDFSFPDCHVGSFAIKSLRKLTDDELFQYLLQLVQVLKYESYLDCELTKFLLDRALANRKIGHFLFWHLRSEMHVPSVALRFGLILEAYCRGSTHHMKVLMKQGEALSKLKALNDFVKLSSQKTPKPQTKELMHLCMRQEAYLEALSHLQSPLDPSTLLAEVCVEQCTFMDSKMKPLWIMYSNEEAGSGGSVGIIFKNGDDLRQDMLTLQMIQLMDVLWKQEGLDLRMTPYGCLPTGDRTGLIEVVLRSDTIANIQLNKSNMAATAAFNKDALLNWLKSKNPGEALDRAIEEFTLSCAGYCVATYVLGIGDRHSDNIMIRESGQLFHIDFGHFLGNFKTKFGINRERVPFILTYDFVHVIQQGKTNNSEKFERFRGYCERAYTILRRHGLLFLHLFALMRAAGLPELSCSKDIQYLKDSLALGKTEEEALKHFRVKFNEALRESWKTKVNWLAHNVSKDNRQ

With `C=CC(=O)Nc1ccc(-n2c(=O)ccc3oc4ccc(-c5cnn(C)c5)cc4c32)cc1`, the pIC50 is 5.62 in the assay with Raji [1], 5.02 in the assay with K562 [4], 6.66 in assay [5] and 4.90 with HL-60 [6]. Also, the “Reduction in Akt Ser-473 phosphorylation” value in the assay with K562 [2] is “Active”. The inhibition in [3] came to 4.8%.
`COc1ccc(-c2ccc3oc4ccc(=O)n(-c5ccc(NC(=O)CN6CCNCC6)cc5)c4c3c2)cn1`: the pIC50 in the assay on Raji [1] is 5.23; with K562 [4], 5.89; in the assay on HL-60 [6], 5.26. The “Reduction in Akt Ser-473 phosphorylation” value in the assay with K562 [2] was “Active”. The inhibition result in assay [3] is “inactive”.
As for `COc1ccc(-c2ccc3oc4ccc(=O)n(-c5ccc(N)cc5)c4c3c2)cn1`, the Activity in the assay on Raji [7] came to 41.5%; with HL-60 [8] it was 21.5%; in the assay with K562 [9], 17.6%.
Take `CNCC(=O)Nc1ccc(-n2c(=O)ccc3oc4ccc(-c5ccc(OC)nc5)cc4c32)cc1`: the pIC50 with Raji [1] was 5.20; in the assay with K562 [4] it was 5.46; in the assay with HL-60 [6], 5.49.
As to `C=CC(=O)Nc1ccc(-n2c(=O)ccc3oc4ccc(-c5ccc(O)cc5)cc4c32)cc1`, the pIC50 in the assay on Raji [1] is 5.41; in the assay on K562 [4], 5.24; with HL-60 [6] it was 5.41. For the same compound, the inhibition in assay [3] worked out at 4.2%.
Take `COc1ccc(-c2ccc3oc4ccc(=O)n(-c5ccc(NC(=O)CN6CCN(C)CC6)cc5)c4c3c2)cn1`: the pIC50 with Raji [1] is 5.01; in the assay on K562 [4], 5.33; in [5], 6.86; in the assay on HL-60 [6], 5.49. In addition, the inhibition entry in assay [3] was “inactive”.
The matching figures for `COc1ccc(-c2ccc3oc4ccc(=O)n(-c5ccc(NC(=O)CN6CCCC6)cc5)c4c3c2)cn1`: 4.95, 5.19, 6.74, 5.27 and “inactive”.
For `COc1ccc(-c2ccc3oc4ccc(=O)n(-c5ccc(NC(=O)CN6CCCCC6)cc5)c4c3c2)cn1`, the pIC50 is 5.10 with Raji [1], 5.59 in the assay on K562 [4], 6.97 in [5] and 5.31 with HL-60 [6]. Besides, the “Reduction in Akt Ser-473 phosphorylation” value in the assay on K562 [2] was “Active”. Moreover, the inhibition entry in [3] is “inactive”.
On to `COc1ccc(-c2ccc3oc4ccc(=O)n(-c5ccc(NC(=O)C(F)(F)F)cc5)c4c3c2)cn1`, for which the Activity in the assay on Raji [7] came to 10%; with HL-60 [8], 35.4%. This compound gave a pIC50 in the assay with K562 [4] of 4.77.
As for `Cn1c(=O)n(-c2ccc(C(C)(C)C#N)cc2)c2c3cc(-c4cnc5ccccc5c4)ccc3ncc21` [DACTOLISIB], the results for the pIC50 in the assay with Raji [1], in the assay on K562 [4] and with HL-60 [6] were 5.37, 5.24 and 6.00, respectively. Further, in the assay with K562 [2], the “Reduction in Akt Ser-473 phosphorylation” value is “Active”. Moreover, in assay [3], the inhibition came to 64.4%.
Turning to `C=CC(=O)Nc1ccc(-n2c(=O)ccc3oc4ccc(-c5ccc(OC)cc5)cc4c32)cc1`, the outcome in the assay with Raji [7] was inactive. The Activity in the assay on K562 [9] amounted to 28.3%.
As for `C=CC(=O)N1CCC[C@@H](n2nc(-c3ccc(Oc4ccccc4)cc3)c3c(N)ncnc32)C1` [IBRUTINIB], the pIC50 in the assay on Raji [1] is 4.85; in the assay on K562 [4], 5.12; in the assay with HL-60 [6] it was 5.10.
For the compound `COc1ccc(-c2ccc3oc4ccc(=O)n(-c5ccc(NC(C)=O)cc5)c4c3c2)cn1`, in the assay with Raji [1], the pIC50 was 4.41. The same compound came in with an Activity with K562 [9] of 47.5%.
As to `C=CC(=O)Nc1ccc(-n2c(=O)ccc3oc4ccc(-c5cccc(N)c5)cc4c32)cc1`, the pIC50 was 5.28 with Raji [1], 5.16 in the assay with K562 [4] and 5.00 with HL-60 [6]. For the same compound, the inhibition result in assay [3] is “inactive”.
In the case of `COc1ccc(-c2ccc3oc4ccc(=O)n(-c5ccc(NS(C)(=O)=O)cc5)c4c3c2)cn1`, the pIC50 with Raji [1] was 4.78; in the assay with K562 [4] it was 4.79; with HL-60 [6], 4.81.
Regarding `CCOC(=O)CNc1ccc(-n2c(=O)ccc3oc4ccc(-c5ccc(OC)nc5)cc4c32)cc1`, the outcome in the assay with Raji [7] was inactive. In addition, the figures for the Activity in the assay with HL-60 [8] and in the assay with K562 [9] were 46% and 29.4%, respectively.
For the compound `COc1ccc(-c2ccc3oc4ccc(=O)n(-c5ccc(NC(=O)CN(C)C)cc5)c4c3c2)cn1`, the pIC50 in the assay on Raji [1] is 4.89; in the assay with K562 [4], 5.39; in [5], 6.63; with HL-60 [6], 5.40. Further, in the assay on K562 [2], the “Reduction in Akt Ser-473 phosphorylation” value was “Active”. Besides, the inhibition result in assay [3] is “inactive”.
For `C=CC(=O)Nc1ccc(-n2c(=O)ccc3oc4ccc(-c5cccc6[nH]ccc56)cc4c32)cc1`, the results for the negative logarithm of the IC50 (pIC50) in the assay with Raji [1], in the assay with K562 [4] and with HL-60 [6] were 4.80, 4.99 and 5.14, respectively.
As to `COc1ccc(-c2ccc3ncc4c(c3c2)n(-c2ccc(N3CCNCC3)c(C(F)(F)F)c2)c(=O)n4C)cn1` [BGT-226 FREE BASE], the pIC50 in [10] was 7.20; in assay [11], 8.40; in assay [12] it was 7.42.
As to `COc1ccc(-c2ccc3oc4ccc(=O)n(-c5ccc(NC(=O)CN6CCOCC6)cc5)c4c3c2)cn1`, the pIC50 in the assay on Raji [1] is 4.88; in the assay on K562 [4] it was 5.00; in assay [5] it was 6.70; in the assay on HL-60 [6], 5.40. In assay [3], the inhibition came out at 11.6%.
For `C=CC(=O)Nc1ccc(-n2c(=O)ccc3oc4ccc(-c5ccc(C(=O)O)cc5)cc4c32)cc1`, the Activity in the assay on Raji [7] was 38%; in the assay on HL-60 [8] it was 22.2%. Also, the outcome with K562 [9] was inactive.
Turning to `CCN(CC)CC(=O)Nc1ccc(-n2c(=O)ccc3oc4ccc(-c5ccc(OC)nc5)cc4c32)cc1`, the pIC50 with Raji [1] was 4.82; in the assay on K562 [4] it was 5.23; in the assay with HL-60 [6], 5.08.
As for `C=CC(=O)Nc1ccc(-n2c(=O)ccc3oc4ccc(-c5ccc(OC)nc5)cc4c32)cc1`, the Activity with Raji [7] amounted to 35%. In addition, the “Reduction in Akt Ser-473 phosphorylation” value in the assay with K562 [2] is “Active”. The inhibition result in assay [3] is “inactive”. In addition, the pIC50 in the assay on K562 [4] was 4.51; in the assay on HL-60 [6], 4.75.
Take `COc1ccc(-c2ccc3oc4ccc(=O)n(-c5ccc(NCC(=O)O)cc5)c4c3c2)cn1`: the pIC50 was 4.40 in the assay with Raji [1] and 4.90 in the assay with HL-60 [6]. This compound also came in with an Activity with K562 [9] of 46%.
On to `COc1ccc(-c2ccc3oc4ccc(=O)n(-c5ccc([N+](=O)[O-])cc5)c4c3c2)cn1`, for which the outcome in the assay with Raji [7] and in the assay with HL-60 [8] was inactive. Further, the Activity in the assay with K562 [9] stood at 28.8%.
For the compound `C=CC(=O)Nc1ccc(-n2c(=O)ccc3oc4ccc(-c5cccc([N+](=O)[O-])c5)cc4c32)cc1`, the pIC50 in the assay with Raji [1] is 4.60; in the assay with HL-60 [6], 4.55. Also, the Activity with K562 [9] is listed as 39%.
As for `C=CC(=O)N1CCc2ccc(-n3c(=O)ccc4cnc5ccc(-c6cnn(C)c6)cc5c43)cc21`, the pIC50 in assay [13] was 6.16.
For `C=CC(=O)Nc1ccc(-n2c(=O)ccc3oc4ccc(-c5cccnc5)cc4c32)cc1`, the pIC50 is 5.28 in the assay with Raji [1]; 6.56 in assay [14]; 6.64 in assay [15]; 6.60 in assay [16]; 4.95 in the assay on K562 [4]; 6.87 in assay [5]. In addition, the pIC50 was 5.38 in the assay on HL-60 [6], 6.16 in assay [17] and 6.08 at PI3K p110 beta/p85 alpha. For the same compound, in the assay with K562 [2], the “Reduction in Akt Ser-473 phosphorylation” value is “Active”. In addition, in assay [3], the inhibition was determined as 45.8%.
